In article PMC6253880, “2-Amido-3-(1H-Indol-3-yl)-N-Substitued-Propanamides as a New Class of Falcipain-2 Inhibitors. 1. Design, Synthesis, Biological Evaluation and Binding Model Studies” (Molecules, 2009):
Read-outs that look alike come from different tables or passages of the source.

Experiments:
[1] = molecular target: T1, falcipain-2 (FP-2) (Plasmodium falciparum, UniProt Q8I6U4); experiment: Surface plasmon resonance-based FP-2/ligand binding assay (Biacore 3000, CM5 chip); settings: SPR, immobilized FP-2, steady state affinity fitting, 25°C, HBS-EP pH 7.4
T1 construct: made in house
T1 sequence (Q8I6U4 244-484): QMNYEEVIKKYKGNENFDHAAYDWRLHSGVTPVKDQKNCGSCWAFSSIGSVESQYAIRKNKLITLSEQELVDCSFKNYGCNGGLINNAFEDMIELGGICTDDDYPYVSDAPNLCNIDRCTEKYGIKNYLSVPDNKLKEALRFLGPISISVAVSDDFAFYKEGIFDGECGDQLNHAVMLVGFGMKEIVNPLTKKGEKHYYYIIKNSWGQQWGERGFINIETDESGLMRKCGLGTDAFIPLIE
Description: Targeting the crystal structure of FP-2 (PDB entry 2GHU), a total of 80,000 compounds were subsequently docked and ranked according to the Glide and GAsDock software. Finally, 81 compounds were purchased and submitted to biological evaluations against FP-2. Because enzymatic assays are time-consuming, surface plasmon resonance (SPR) measurements were used for the primary screening to determine the binding affinity of these 81 candidate molecules to FP-2. […] Among the 81 compounds, the biosensor RU of compound 1 was concentration-dependent. […] Thus, compound 1 could be designated as a binder (or hit) of FP-2.
The purification and refolding of recombinant protein FP-2 was performed as described by Shenai et al. The binding affinity of compound 1 to FP-2 in vitro was determined based on surface plasmon resonance (SPR) technology. The measurement was performed using the dual flow cell Biacore 3000 instrument (Biacore AB, Uppsala, Sweden). Immobilization of FP-2 to the hydrophilic carboxymethylated dextran matrix of the sensor chip CM5 (Biacore) was carried out by the standard primary amine coupling reaction wizard. […] The equilibrium constants (KD values) evaluating the protein–ligand binding affinities were determined by the steady state affinity fitting analysis of the Biacore data.

[2] = molecular target: T1, falcipain-2 (FP-2); experiment: Enzyme inhibition assay, recombinant FP-2, substrate Z-Leu-Arg-AMC, fluorescence; assay type: biochemical; settings: for Inhibition rate at 10 μM (%): 10 μM compound; for Inhibition rate at 10 μM (%) / inhibition at 10 µM: FP-2 30 nM, pH 5.5, 30 min preincubation
Experimental: (§1) For the primary assay, the percent inhibitions of the compounds were measured at 10 μM. […] It is clear that the inhibitory activity of compound 2k was ~3 times higher than that of the lead compound 1, proving the validity of our chemical modifications. The anti-malarial potential of compound 1 in mice was investigated with Plasmodium berghei ANKA using a standard 4-day suppression test.
The purification and refolding of recombinant protein FP-2 was performed as described by Shenai et al. IC50 values against recombinant FP-2 were determined as described previously. FP-2 (30nM) was incubated for 30 min at room temperature in 100 mM sodium acetate, pH 5.5, 10 mM DTT, with different concentrations of tested inhibitors. Inhibitor solutions were prepared from stock in DMSO (maximum concentration of DMSO in the assay was 1%). After 30 min incubation, the substrate Z-Leu-Arg-AMC (benzoxycarbonyl-Leu-Arg-7-amino-4-methylcoumarin, Bachem AG) in the same buffer was added to a final concentration of 25 μM. The increase in fluorescence (excitation at 355 nm and emission at 460 nm) was monitored for 30 min at room temperature with an automated microtiter plate spectrofluorimeter (Molecular Devices, Flex Station). Half-maximal inhibitory concentration (IC50) was determined from plots of percent activity over compound concentration using GraphPad Prism software.

[3] = test system: Plasmodium berghei ANKA; experiment: Standard 4-day suppression test in mice; assay type: in vivo; settings: 9 mg/kg body weight intragastric daily for 4 days following infection, unpublished data
Experimental: as §1

[4] = pH 5.5, read-out: Inhibition rate at 10 μM (%), 10 μM compound
[5] = pH 5.5, 10 μM compound, read-out: Inhibition rate at 10 μM (%)

| Compound | inhibition at 10 µM [2, 4] [%] | melting point [°C] | also measured |
| --- | --- | --- | --- |
| O=C(N[C@H](Cc1c[nH]c2ccccc12)C(=O)NCc1ccccc1)Oc1ccccc1 [Compound 1, (R)-2-Phenoxycarboxamido-3-(1H-indol-3-yl)-N-benzylpropanamide] | > 20 | – | Kd [1]: 5.88 µM; IC50 [2]: 29.7 µM; Inhibition rate at 10 μM (%) [2]: 29.4%; reduction in parasitemia relative to normal control [3]: < 50% |
| O=C(N[C@@H](Cc1c[nH]c2ccccc12)C(=O)NCc1ccccc1)Oc1ccccc1 [Compound 2a, (S)-2-Phenoxycarboxamido-3-(1H-indol-3-yl)-N-benzylpropanamide] | 14.3 | – | – |
| O=C(Cc1ccccc1)N[C@H](Cc1c[nH]c2ccccc12)C(=O)NCc1ccccc1 [Compound 2b, (R)-2-(2-Phenylacetamido)-3-(1H-indol-3-yl)-N-benzylpropanamide] | – | – | Inhibition rate at 10 μM (%) [2]: 25.7%; inhibition at 10 µM [2, 5]: > 20%; IC50 ([2]; recombinant FP-2 30 nM, Z-Leu-Arg-AMC 25 μM, pH 5.5, read-out: IC50): 39.4 µM |
| O=C(NCc1ccccc1)[C@@H](Cc1c[nH]c2ccccc12)NCc1ccccc1 [Compound 2c, (R)-2-Benzylamino-3-(1H-indol-3-yl)-N-benzyl-propanamide] | – | 38 to 40 | inhibition at 10 µM [2, 5]: 13% |
| O=C(N[C@H](Cc1c[nH]c2ccccc12)C(=O)Nc1ccccc1)Oc1ccccc1 [Compound 2d, (R)-2-Phenoxycarboxamido-3-(1H-indol-3-yl)-N-phenylpropanamide] | 11.8 | 195 to 197 | – |
| O=C(N[C@H](Cc1c[nH]c2ccccc12)C(=O)Nc1ccc(F)cc1)Oc1ccccc1 [Compound 2e, (R)-2-Phenoxycarboxamido-3-(1H-indol-3-yl)-N-(4-fluorophenyl)-propanamide] | 3.1 | 185 to 189 | – |
| CCOc1ccc(NC(=O)[C@@H](Cc2c[nH]c3ccccc23)NC(=O)Oc2ccccc2)cc1 [Compound 2f, (R)-2-Phenoxycarboxamido-3-(1H-indol-3-yl)-N-(4-ethoxyphenyl)-propanamide] | 13.6 | 180 to 184 | – |
| O=C(N[C@H](Cc1c[nH]c2ccccc12)C(=O)Nc1ccc2c(c1)OCO2)Oc1ccccc1 [Compound 2g, (R)-2-Phenoxycarboxamido-3-(1H-indol-3-yl)-N-(benzo[1,3]dioxol-5-yl)-propanamide] | 3.1 | 186 to 188 | – |
| O=C(N[C@H](Cc1c[nH]c2ccccc12)C(=O)NCc1cccs1)Oc1ccccc1 [Compound 2i, (R)-2-Phenoxycarboxamido-3-(1H-indol-3-yl)-N-[(thiophen-2-yl)methyl]-propanamide] | 2.2 | 184 to 186 | – |
| C#CCNC(=O)[C@@H](Cc1c[nH]c2ccccc12)NC(=O)Oc1ccccc1 [Compound 2j, (R)-2-Phenoxycarboxamido-3-(1H-indol-3-yl)-N-(prop-2-yn-1-yl)-propanamide] | 6.6 | 173 to 177 | – |
| O=C(N[C@H](Cc1c[nH]c2ccccc12)C(=O)NCc1ccc([N+](=O)[O-])cc1)Oc1ccccc1 [Compound 2k, (R)-2-Phenoxycarboxamido-3-(1H-indol-3-yl)-N-[(4-nitrophenyl)methyl]-propanamide] | – | – | IC50 [2]: 10 µM; FP-2 inhibitory activity relative to lead compound 1 (fold better) ([2]; ratio of inhibitory activity versus compound 1): ~ 3 |
| COC(=O)c1ccc(CNC(=O)[C@@H](Cc2c[nH]c3ccccc23)NC(=O)Oc2ccccc2)cc1 [Compound 2l, (R)-2-Phenoxycarboxamido-3-(1H-indol-3-yl)-N-(4-methoxycarbonyl-phenylmethyl)-propanamide] | > 20 | – | IC50 [2]: 13.3 µM; Inhibition rate at 10 μM (%) [2]: 32.9% |
